Where two headings read alike, the source gives them in different places.
Legend:
EZH2/SUZ/EED = molecular target: T1, EZH2/SUZ/EED (Homo sapiens, UniProt O75530+Q15022+Q15910); test: Inhibitory effect on EZH2 by the MTase-Glo method (Test Example 1); format: biochemical; details: EZH2/SUZ/EED 6.25 nM, H3 peptide 10 μM, SAM 3 μM, 30° C. 3 h, read-out: Test Example 1 WT EZH2 IC50
T1 construct: purchased BPS 51003
Experimental: (§1) The compound was dissolved in DMSO, and the compound was serially diluted using ECHO665 and transferred to a 384-well reaction plate (Corning, 3824). A sample containing only DMSO was added as a positive control (maximum signal control) and a negative control (minimum signal control), while ensuring that the final DMSO content in each reaction well was 0.5%. The protein was configured in reaction buffer (50 mM Bicine, 0.01% Triton X-100, 1 mM DTT, 0.01% BSA, pH 7.6), such that the final reaction concentrations of EZH2/SUZ/EED (BPS, 51003) protein solution and EZH1/SUZ/EED (BPS, 51006) were 6.25 nM and 25 nM, respectively. The negative control (minimum signal control) used an equal amount of buffer instead of protein solution. The prepared protein solution was added to the 384-well reaction plate and pre-incubated at room temperature for 15 minutes. The mixture of the substrate H3 peptide fragment (custom-synthesized by GenScript, biotinylated Histone H3(21-44) peptide ([…]-GG-K(Biotin)-OH)) prepared in the reaction buffer and SAM (Promega, V7601) was added into the 384-well plate, such that the final reaction concentration of H3 peptide fragment was 10 μM, and the final concentration of SAM was 3 μM. The mixture was centrifuged at 1000 rpm for 1 min. The 384-well reaction plate was placed in a constant temperature shaker and incubate at 30° C. for 3 h at a speed of 300 rpm. Then the detection reagent was added according to the experimental process of the kit MTase-Glo (Promega, V7601) and incubated.
(§2) After incubation, read with BMG PHERAStar. The luminescence signals obtained by positive control (maximum signal control) and negative control (minimum signal control) were normalized to obtain the inhibition rate of different concentrations of compounds. Then, the IC50 of the compound on the enzyme activity inhibition was calculated by GraphPad Prism 6 with log(inhibitor) vs. response-Variable slope model fitting. The fitting equation is: Y=Bottom+(Top−Bottom)/(1+10^((Log IC50−X)*HillSlope)), wherein Y represents the known percentage remaining enzyme activity, and X represents the known activity after Log compound concentration.

EZH1/SUZ/EED = molecular target: T2, EZH1/SUZ/EED (Homo sapiens, UniProt O75530+Q15022+Q92800); test: Inhibitory effect on EZH1 by the MTase-Glo method (Test Example 1); format: biochemical; details: EZH1/SUZ/EED 25 nM, H3 peptide 10 μM, SAM 3 μM, 30° C. 3 h, read-out: Test Example 1 WT EZH1 IC50
T2 construct: purchased BPS 51006
T2 sequence (Q92800 2-747 limits assumed): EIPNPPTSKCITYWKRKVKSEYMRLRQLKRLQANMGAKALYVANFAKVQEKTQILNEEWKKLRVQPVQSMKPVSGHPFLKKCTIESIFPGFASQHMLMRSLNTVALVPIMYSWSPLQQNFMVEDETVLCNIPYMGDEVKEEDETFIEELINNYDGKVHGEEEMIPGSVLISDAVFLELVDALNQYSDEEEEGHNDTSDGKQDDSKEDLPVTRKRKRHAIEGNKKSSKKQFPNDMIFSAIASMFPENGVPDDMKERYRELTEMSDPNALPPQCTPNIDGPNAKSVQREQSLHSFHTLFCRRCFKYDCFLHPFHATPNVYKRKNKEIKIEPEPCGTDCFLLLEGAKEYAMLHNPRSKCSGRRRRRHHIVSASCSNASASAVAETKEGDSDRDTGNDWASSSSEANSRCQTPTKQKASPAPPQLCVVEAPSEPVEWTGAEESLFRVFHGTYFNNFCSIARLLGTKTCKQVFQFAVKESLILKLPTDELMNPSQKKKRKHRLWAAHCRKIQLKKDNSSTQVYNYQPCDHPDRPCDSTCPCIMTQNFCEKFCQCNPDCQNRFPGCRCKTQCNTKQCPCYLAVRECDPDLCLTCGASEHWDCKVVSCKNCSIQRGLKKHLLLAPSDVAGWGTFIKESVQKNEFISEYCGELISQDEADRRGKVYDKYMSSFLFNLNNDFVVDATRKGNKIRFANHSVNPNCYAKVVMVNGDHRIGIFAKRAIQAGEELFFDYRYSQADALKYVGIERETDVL
T2 sequence (Q15022 2-739 partner limits assumed): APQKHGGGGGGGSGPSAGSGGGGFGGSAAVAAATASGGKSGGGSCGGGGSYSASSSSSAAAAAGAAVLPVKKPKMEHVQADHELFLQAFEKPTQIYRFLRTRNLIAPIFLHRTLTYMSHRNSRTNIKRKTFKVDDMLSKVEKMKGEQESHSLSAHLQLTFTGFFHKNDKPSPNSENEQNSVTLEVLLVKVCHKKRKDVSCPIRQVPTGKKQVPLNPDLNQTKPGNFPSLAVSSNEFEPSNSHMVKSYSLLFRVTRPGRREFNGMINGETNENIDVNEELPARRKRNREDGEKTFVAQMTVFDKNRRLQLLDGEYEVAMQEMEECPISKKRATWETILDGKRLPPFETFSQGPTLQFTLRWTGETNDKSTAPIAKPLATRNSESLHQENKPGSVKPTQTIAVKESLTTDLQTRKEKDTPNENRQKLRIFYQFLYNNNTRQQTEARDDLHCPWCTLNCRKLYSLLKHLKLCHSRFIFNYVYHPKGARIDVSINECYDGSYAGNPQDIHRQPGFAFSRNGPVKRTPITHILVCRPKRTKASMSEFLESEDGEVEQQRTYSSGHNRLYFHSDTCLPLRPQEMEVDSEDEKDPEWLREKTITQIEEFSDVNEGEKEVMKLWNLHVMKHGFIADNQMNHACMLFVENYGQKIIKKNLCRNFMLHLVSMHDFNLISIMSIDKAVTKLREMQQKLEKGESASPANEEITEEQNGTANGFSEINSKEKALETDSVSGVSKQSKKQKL
T2 sequence (O75530 2-441 partner limits assumed): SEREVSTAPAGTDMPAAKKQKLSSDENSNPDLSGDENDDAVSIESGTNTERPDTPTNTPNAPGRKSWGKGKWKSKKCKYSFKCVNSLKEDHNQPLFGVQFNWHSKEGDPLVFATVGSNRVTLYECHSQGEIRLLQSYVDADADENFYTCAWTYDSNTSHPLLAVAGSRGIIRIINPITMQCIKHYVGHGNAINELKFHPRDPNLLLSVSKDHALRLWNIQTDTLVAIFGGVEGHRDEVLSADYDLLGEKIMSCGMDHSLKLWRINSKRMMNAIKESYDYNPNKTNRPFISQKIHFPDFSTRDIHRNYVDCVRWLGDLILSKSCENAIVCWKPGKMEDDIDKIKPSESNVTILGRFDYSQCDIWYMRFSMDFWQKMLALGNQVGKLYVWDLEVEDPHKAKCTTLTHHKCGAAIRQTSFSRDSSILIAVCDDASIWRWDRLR
Experimental: as §1, §2

[1] = tested on: H3K27Me3 methylation in Karpas-422 cells; test: H3K27Me3 cell method, inhibition of H3K27Me3 methylation (Test Example 2); format: cell-based, human
Experimental: Karpas-422 (Nanjing Kebai, CBP60629) cells were seeded in a 96-well plate (Corning, 3894) at 15,000 cells per well in culture medium (80% 1640 (Hyclone, SH30809.01)+20% FBS (Corning, 35-081-CV)), and then added with different concentrations of compounds for treatment. The cell growth group without adding compounds is used as a positive control (maximum signal control), and the medium is used as a negative control (minimum signal control), while ensuring that in each reaction well, the final concentration of DMSO was 0.2%. Compounds and cells were incubated for 3 days in a cell culture incubator (37° C., 5% CO2). The 96-well plate was taken out from the cell culture incubator and equilibrated to room temperature, and 25 ul of cell suspension was taken out into a 384-well plate. The CCK8 (Beiyuntian, C0040) detection reagent was added, incubated at 37° C. for 1 h, and […] was detected. The rest of the cells followed the procedure of the kit EPIgeneous H3K27Me3 cellular kit (Cisbio, 62KC3PAE) to carry out experiment, read HTRF signal with BMG PHERAStar. […] By GraphPad Prism 6 with log(inhibitor)vs.response-Variable slope model simulation, the IC50 of the compound on cell activity inhibition was calculated. The fitting equation is: Y=Bottom+(Top−Bottom)/(1+10^((Log IC50−X)*HillSlope)), wherein Y represents the inhibition rate, and X represents the known concentration of the compound after Log.

[2] = Homo sapiens, KARPAS-422, 72 h, Karpas-422 cells, 3 days incubation, HTRF signal, read-out: Test Example 2 H3K27Me3 inhibition (Karpas-422) IC50
[3] = Karpas-422 cells, 3 days incubation, HTRF signal, read-out: Test Example 2 H3K27Me3 inhibition (Karpas-422) IC50

T1 sequence (Q15910 2-746 limits assumed): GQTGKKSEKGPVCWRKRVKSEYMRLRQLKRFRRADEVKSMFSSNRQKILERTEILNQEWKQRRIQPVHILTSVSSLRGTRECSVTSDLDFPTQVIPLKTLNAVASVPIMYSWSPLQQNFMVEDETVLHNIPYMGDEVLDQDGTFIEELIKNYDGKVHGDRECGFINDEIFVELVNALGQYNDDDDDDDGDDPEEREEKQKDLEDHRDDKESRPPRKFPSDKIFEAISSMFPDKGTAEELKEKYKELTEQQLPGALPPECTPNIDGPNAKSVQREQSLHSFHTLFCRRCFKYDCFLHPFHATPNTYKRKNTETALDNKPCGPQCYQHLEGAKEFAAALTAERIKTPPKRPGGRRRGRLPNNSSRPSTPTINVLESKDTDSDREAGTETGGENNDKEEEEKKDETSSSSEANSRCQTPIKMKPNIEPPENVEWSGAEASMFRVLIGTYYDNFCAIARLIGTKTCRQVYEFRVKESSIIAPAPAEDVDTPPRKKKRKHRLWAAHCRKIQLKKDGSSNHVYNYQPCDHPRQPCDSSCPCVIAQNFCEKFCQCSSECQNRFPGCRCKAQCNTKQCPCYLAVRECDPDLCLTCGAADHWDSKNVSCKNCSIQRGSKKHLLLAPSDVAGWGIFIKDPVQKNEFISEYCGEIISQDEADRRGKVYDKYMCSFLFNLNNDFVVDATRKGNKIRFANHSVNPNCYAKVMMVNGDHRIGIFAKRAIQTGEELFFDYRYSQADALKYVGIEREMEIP
T1 sequence (Q15022 2-739 partner limits assumed): as the sequence (Q15022 2-739 partner limits assumed) above
T1 sequence (O75530 2-441 partner limits assumed): as the sequence (O75530 2-441 partner limits assumed) above

| IC50 (EZH2/SUZ/EED) | IC50 (EZH1/SUZ/EED) | IC50 [1, 2] | IC50 [1, 3] | SMILES | IC50 ([1]; Homo sapiens, KARPAS-422, 72 h, read-out: Test Example 2 H3K27Me3 inhibition (Karpas-422) IC50(nM)) |
| --- | --- | --- | --- | --- | --- |
| 21.7 nM | 260 nM | > 1000 nM |  | Cc1cc(C)c(CNC(=O)c2cc(Cl)c3c(c2C)OC(C2CCC(N4CC(F)(F)C4)CC2)CO3)c(=O)[nH]1 (single isomer, unassigned) [Compound 57] |  |
| 35.8 nM | 2300 nM |  | > 1000 nM | Cc1cc(C)c(CNC(=O)c2cc(Cl)c3c(c2C)OC(C2CCC(N4CC(F)(F)C4)CC2)CO3)c(=O)[nH]1 (single isomer, unassigned) [Compound 58] |  |
| 9.6 nM | 7 nM |  | 233 nM | Cc1cc(C)c(CNC(=O)c2cc(Cl)c3c(c2C)OC(C2CCC(N4CC5COCC5C4)CC2)CO3)c(=O)[nH]1 (single isomer, unassigned) [Compound 59] |  |
| 31 nM |  | > 1000 nM |  | Cc1cc(C)c(CNC(=O)c2cc(Cl)c3c(c2C)OC(C2CCC(N4CCOCC4)CC2)CO3)c(=O)[nH]1 (single isomer, unassigned) [Compound 81] |  |
| 3.1 nM |  | 14.2 nM |  | COC1CN([C@H]2CC[C@H]([C@H]3COc4c(Cl)cc(C(=O)NCc5c(SC)cc(C)[nH]c5=O)c(C)c4O3)CC2)C1 [Compound 9] |  |
| 2.6 nM |  | 9.4 nM |  | CSc1cc(C)[nH]c(=O)c1CNC(=O)c1cc(Cl)c2c(c1C)O[C@H]([C@H]1CC[C@H](N3CC(OC4CC4)C3)CC1)CO2 [Compound 12] |  |
| 2.1 nM |  | 101 nM |  | CSc1cc(C)[nH]c(=O)c1CNC(=O)c1cc(Cl)c2c(c1C)O[C@@H]([C@H]1CC[C@H](N3CC4COCC4C3)CC1)CO2 (stereo partly drawn) [Compound 15] |  |
|  |  | 8.3 nM |  | CO[C@H]1CCN([C@H]2CC[C@H]([C@H]3COc4c(Cl)cc(C(=O)NCc5c(SC)cc(C)[nH]c5=O)c(C)c4O3)CC2)C1 [Compound 40] |  |
|  | 8.6 nM | 47.1 nM |  | CO[C@@H]1CCN([C@H]2CC[C@H]([C@H]3COc4c(Cl)cc(C(=O)NCc5c(SC)cc(C)[nH]c5=O)c(C)c4O3)CC2)C1 [Compound 42] |  |
|  | 7.7 nM | 65.8 nM |  | CSc1cc(C)[nH]c(=O)c1CNC(=O)c1cc(Cl)c2c(c1C)O[C@@H]([C@H]1CC[C@H](N3CC4(CCO4)C3)CC1)CO2 [Compound 46] |  |
|  | 6 nM | 27.9 nM |  | CSc1cc(C)[nH]c(=O)c1CNC(=O)c1cc(Cl)c2c(c1C)O[C@@H]([C@H]1CC[C@H](N3CC4(CCOC4)C3)CC1)CO2 [Compound 48] |  |
|  | 2.2 nM | 2.8 nM |  | COC1CC2CN([C@H]3CC[C@@H]([C@H]4COc5c(Cl)cc(C(=O)NCc6c(SC)cc(C)[nH]c6=O)c(C)c5O4)CC3)CC2C1 (stereo partly drawn) [Compound 49] |  |
|  | 11.8 nM | 23.8 nM |  | COC1CC2CN([C@H]3CC[C@H]([C@H]4COc5c(Cl)cc(C(=O)NCc6c(SC)cc(C)[nH]c6=O)c(C)c5O4)CC3)CC2C1 (stereo partly drawn) [Compound 50] |  |
| 10.5 nM |  | 95.5 nM |  | Cc1cc(C)c(CNC(=O)c2cc(Cl)c3c(c2C)OC(C2CCC(N4CC(C(C)(C)O)C4)CC2)CO3)c(=O)[nH]1 (stereo not drawn) [Compound 85] |  |
| 20.1 nM |  | > 1000 nM |  | Cc1cc(C)c(CNC(=O)c2cc(Cl)c3c(c2C)O[C@@H](C2CCN(CC4COC4)CC2)CO3)c(=O)[nH]1 [Compound 86] |  |
| 29.5 nM |  | 310 nM |  | Cc1cc(C)c(CNC(=O)c2cc(Cl)c3c(c2C)O[C@@H](C2CCN(C4COC4)CC2)CO3)c(=O)[nH]1 [Compound 88] |  |
| 5.7 nM |  | 462 nM |  | COc1cc(C)[nH]c(=O)c1CNC(=O)c1cc(Cl)c2c(c1C)O[C@@H]([C@H]1CC[C@H](N3CC(OC)C3)CC1)CO2 [Compound 98] |  |

| IC50 (EZH2/SUZ/EED) | IC50 (EZH1/SUZ/EED) | IC50 [1, 2] | IC50 [1, 3] | SMILES | IC50 ([1]; Homo sapiens, KARPAS-422, 72 h, read-out: Test Example 2 H3K27Me3 inhibition (Karpas-422) IC50(nM)) |
| --- | --- | --- | --- | --- | --- |
| 9.4 nM | 91.2 nM |  |  | COc1cc(C)[nH]c(=O)c1CNC(=O)c1cc(Cl)c2c(c1C)O[C@@H]([C@H]1CC[C@@H](N3CC4CC4C3)CC1)CO2 (stereo partly drawn) [Compound 113] |  |
| 4.9 nM | 74.8 nM |  |  | COc1cc(C)[nH]c(=O)c1CNC(=O)c1cc(Cl)c2c(c1C)O[C@@H]([C@H]1CC[C@@H](N3CC4C(C3)C4OC)CC1)CO2 (stereo partly drawn) [Compound 115] |  |
| 9.5 nM |  | 43.2 nM |  | CSc1cc(C)[nH]c(=O)c1CN(C)C(=O)c1cc(Cl)c2c(c1C)O[C@@H]([C@H]1CC[C@@H](N(C)C)CC1)CO2 [Compound 128] |  |
| 7.3 nM | 722 nM |  |  | Cc1cc(C)c(CNC(=O)c2c(C)c3c(c(Cl)c2F)OC[C@H]([C@H]2CC[C@H](N(C)C)CC2)O3)c(=O)[nH]1 [Compound 132] |  |
| 6.6 nM | 125 nM |  |  | COc1c(Cl)c2c(c(C)c1C(=O)NCc1c(C)cc(C)[nH]c1=O)O[C@@H]([C@H]1CC[C@@H](N(C)C)CC1)CO2 [Compound 134] |  |
| 80.1 nM | 5600 nM |  |  | COc1c(Cl)c2c(c(C)c1C(=O)NCc1c(C)cc(C)[nH]c1=O)O[C@@H]([C@H]1CC[C@H](N(C)C)CC1)CO2 [Compound 135] |  |
| 42.5 nM | 192 nM |  |  | COC1C[N+]([O-])([C@H]2CC[C@@H]([C@H]3COc4c(Cl)cc(C(=O)NCc5c([S+](C)[O-])cc(C)n(O)c5=O)c(C)c4O3)CC2)C1 (stereo partly drawn) [Compound 136] |  |
| 1260 nM | 8490 nM |  |  | COC1CN([C@H]2CC[C@@H]([C@H]3COc4c(Cl)cc(C(=O)NCc5c([S+](C)[O-])cc(C)[nH]c5=O)c(C)c4O3)CC2)C1 (stereo partly drawn) [Compound 139] |  |
| 897 nM | 8910 nM |  |  | COC1CN([C@H]2CC[C@H]([C@H]3COc4c(Cl)cc(C(=O)NCc5c([S+](C)[O-])cc(C)[nH]c5=O)c(C)c4O3)CC2)C1 (stereo partly drawn) [Compound 140] |  |
| 1160 nM | 7610 nM |  |  | Cc1cc(C)c(CNC(=O)c2cc(Cl)c3c(c2Cl)O[C@H]([C@H]2CC[C@@H](N(C)C)CC2)CO3)c(=O)[nH]1 [Compound 142] |  |
| 15.6 nM | 769 nM |  |  | Cc1cc(C)c(CNC(=O)c2cc(Cl)c3c(c2Cl)O[C@@H]([C@H]2CC[C@H](N(C)C)CC2)CO3)c(=O)[nH]1 [Compound 144] |  |
| 67.1 nM | 2830 nM |  |  | Cc1cc(C)c(CNC(=O)c2cc(Cl)c3c(c2Cl)OC[C@@H]([C@H]2CC[C@H](N(C)C)CC2)O3)c(=O)[nH]1 [Compound 148] |  |
| 11.6 nM | 22.2 nM |  |  | COC1CN([C@H]2CC[C@H]([C@H]3COc4c(Cl)cc(C(=O)NCc5c(SC)cc(C)[nH]c5=O)c(Cl)c4O3)CC2)C1 [Compound 150] |  |
|  |  | 13.2 nM |  | COc1cc(C)[nH]c(=O)c1CNC(=O)c1cc(Cl)c2c(c1Cl)O[C@@H]([C@H]1CC[C@@H](N3CC(OC)C3)CC1)CO2 [Compound 151] |  |
| 4.2 nM | 30 nM |  |  | COC1CN([C@H]2CC[C@H]([C@H]3COc4c(C#N)cc(C(=O)NCc5c(SC)cc(C)[nH]c5=O)c(C)c4O3)CC2)C1 [Compound 154] |  |
| 1.5 nM | 2.3 nM |  |  | [2H]C([2H])([2H])Sc1cc(C)[nH]c(=O)c1CNC(=O)c1cc(Cl)c2c(c1C)O[C@@H](C1CCC(N3CC(OC)C3)CC1)CO2 (stereo partly drawn) [Compound 177] |  |

| SMILES | IC50 (EZH2/SUZ/EED) | IC50 (EZH1/SUZ/EED) | IC50 [1, 2] | IC50 [1, 3] | IC50 ([1]; Homo sapiens, KARPAS-422, 72 h, read-out: Test Example 2 H3K27Me3 inhibition (Karpas-422) IC50(nM)) |
| --- | --- | --- | --- | --- | --- |
| CON(C)C1CCC(C2COc3c(Cl)cc(C(=O)NCc4c(C)cc(C)[nH]c4=O)c(C)c3O2)CC1 (single isomer, unassigned) [Compound 78] | 11.9 nM |  |  |  | 370 nM |

From patent US20260184697A1, “EZH1/2 INHIBITOR, PREPARATION THEREOF, AND USE THEREOF IN ANTI-TUMOR THERAPY” (JIANGSU TASLY DIYI PHARMACEUTICAL CO., LTD., priority 2022, published 2026)
